From publication PMC11504230, “Comparative Properties of Helical and Linear Amphipathicity of Peptides Composed of Arginine, Tryptophan, and Valine” (Antibiotics, 2024)
Ends that are not written are not given here.

Assays:
A. baumannii = assay type: cell-based; conditions: 18 h
Method: (§1) To examine antibacterial activity, we used minor modifications of a standard growth inhibition assay endorsed by the Clinical and Laboratory Standards Institute (CLSI), as previously described. Bacterial inocula for testing were prepared from exponential growth phase by diluting overnight cultures at 1:100 with fresh Tryptic soy broth (TSB) (Millipore Sigma, USA, Cat. No. 22092-500G) and incubating for an additional 3–4 h. Bacteria were spun at 3000× g for 10 min and the pellet was resuspended in phosphate-buffered saline (PBS) (Millipore Sigma, St Louis, MO, USA, Cat. No. P4417) to determine bacterial turbidity using a Den-1B densitometer (Grant Instruments, Beaver Falls, PA, USA) at 0.5 McFarland (unit of bacterial density) corresponding to […]. The prepared bacteria were incubated with each of the indicated peptides at a maximum test concentration of 16 µM and serially diluted in MHB2 and RPMI 1640 (Corning, NY, USA, Cat. No. 15-040-CM) at a 1:1 ratio. The plates were kept in an 8-drawer incubator for 18 h at 37 °C. A robotic system takes a plate from the drawer every hour and feeds a plate reader, which records the kinetics of bacterial growth at 570 nm to examine growth inhibition in real time (BioTek Instruments, Winooski, VT, USA). The minimum inhibitory concentration or MIC is the minimum peptide concentration that prevented bacterial growth, and it is objectively indicated by a flat (horizontal) line in the bacterial growth kinetic graph. Most assays are completed in duplicate. To assay for anti-biofilm activities, the 96-well plate from the growth inhibition assay is incubated for an additional 6 h (24 h total). The biomass was detected with crystal violet using a plate reader at A570, as previously described.
(§2) Figure 2 Comparative antibacterial activities of the H-RWV and L-RWV series. The 2 series were compared against MDR strains of 6 organisms as indicated. The test medium was composed of physiologically relevant RFM (60% RPMI plus 10% fetal bovine serum or FBS and 30% cation-adjusted MHB); endogenous AMP control was Indolicidin (Indo); small-molecule antibiotic controls were cefazolin, ceftazidime (Ceft), and meropenem (Mero). MIC, minimum inhibitory concentration with means represented by the black and red horizontal bars, which are used to determine the MOLs (minimum optimal lengths) indicated by the red and black arrows. (A–F) is based on the test organism as indicated. Data are representative of 2 independent trials. Corresponding Table 2 provides the mean MICs for the strains of each organism. The numbers stand for each peptide: 8, L/H-RWV8; 10, L/H-RWV10, etc.; red bar, mean MIC of L-RWV peptides and black bars, mean MIC of H-RWV peptides.

E. coli = assay type: cell-based; conditions: 18 h
Method: as §1, §2

E. faecium = assay type: cell-based; conditions: 18 h
Method: as §1, §2

Enterobacter spp. = assay type: cell-based; conditions: 18 h
Method: as §1, §2

K. pneumoniae = assay type: cell-based; conditions: 18 h
Method: as §1, §2

P. aeruginosa = assay type: cell-based; conditions: 18 h
Method: as §1, §2

S. aureus = assay type: cell-based; conditions: 18 h
Method: as §1, §2

[1] = system: S. aureus (SA719) biofilm; assay type: cell-based; conditions: 24 h
Method: as §1
Figure 3 Antibiofilm activities of the […] peptides. MBEC or minimum biofilm elimination concentration is the minimum concentration at which no biomass was detected by the crystal violet method. Standard deviations reflect differences between 2 independent trials. The dashed line is to clarify the mid-point between 0 and 5.

human red blood cells = assay: Red blood cell lysis; assay type: cell-based; conditions: H-RWV16 versus L-RWV12
Method: Lytic effects on human red blood cells were examined as previously described. Briefly, RBCs were separated by histopaque differential centrifugation using blood anonymously obtained from Vitalant (Pittsburgh, PA, USA). For RBC lysis assay, the isolated RBCs were resuspended in PBS at a concentration of 5%. The peptides were serially diluted 2-fold in 100 µL of PBS with a starting concentration of 32 µM. A volume of 100 µL of the prepared 5% RBC solution was then added for a final concentration of 2.5% RBC and incubated for 1 h. After incubation, the plates were centrifuged at 1000× g for 7 min and the supernatant was removed to measure its OD. In parallel, a standard curve of RBC lysis was generated by lysing the RBCs with deionized water at […] RBC dilutions of 10, 20, 30, 40, 50, 60, 70, 80, 90, and 100% to determine the percentage of RBC lysis in the test samples. Both the treated test samples and standard curve were read at A570. Three independent trials of the experiment were conducted.
Figure 4 Human RBC lytic effects of the […] peptides. Indolicidin (Indo) was used as control; RBC lysis was assayed in PBS as described in Methods. For clarity, the dashed line indicates the 10% lysis mark across the graph as a critical point between minor (<10%) and moderate (>10%) RBC lysis.

In the case of RRWWRRVWRW [H-RWV10], the “Mean MIC, A. baumannii” value (A. baumannii) is reported as 22 ± 12 µM, the “Mean MIC, E. coli” value (E. coli) is reported as 22 ± 8.8 µM and the “Mean MIC, E. faecium” value (E. faecium) is reported as 19 ± 13 µM. For the same sequence, the “Mean MIC, Enterobacter spp.” value (Enterobacter spp.) was 32 µM, the “Mean MIC, K. pneumoniae” value (K. pneumoniae) was 29 ± 6.5 µM and the “Mean MIC, P. aeruginosa” value (P. aeruginosa) was 24 ± 8 µM. For the same sequence, the “Mean MIC, S. aureus” value (S. aureus) was 29 ± 6.5 µM.

With RRWWRRWW [H-RWV8] the “Mean MIC, A. baumannii” value (A. baumannii) was 24 ± 9.2 µM, the “Mean MIC, E. coli” value (E. coli) was 24 ± 8.8 µM and the “Mean MIC, E. faecium” value (E. faecium) was 32 µM. For the same sequence, the “Mean MIC, Enterobacter spp.” value (Enterobacter spp.) was 32 µM, the “Mean MIC, K. pneumoniae” value (K. pneumoniae) was 29 ± 7.1 µM and the “Mean MIC, P. aeruginosa” value (P. aeruginosa) was 27 ± 7.5 µM. For the same sequence, the “Mean MIC, S. aureus” value (S. aureus) was 29 ± 7 µM.

With RRRRRWWWWV [L-RWV10] the “Mean MIC, A. baumannii” value (A. baumannii) was 8.5 ± 3.6 µM, the “Mean MIC, E. coli” value (E. coli) was 8 µM and the “Mean MIC, E. faecium” value (E. faecium) was 21 ± 9.5 µM. For the same sequence, the “Mean MIC, Enterobacter spp.” value (Enterobacter spp.) was 32 µM, the “Mean MIC, K. pneumoniae” value (K. pneumoniae) was 26 ± 8.2 µM and the “Mean MIC, P. aeruginosa” value (P. aeruginosa) was 22 ± 7.7 µM. The “Mean MIC, S. aureus” value (S. aureus) was 26 ± 8 µM.

For RRRRRRWWWWVV [L-RWV12], the “Mean MIC, E. coli” value (E. coli) was 4.6 ± 1.6 µM and the “MBEC (minimum biofilm elimination concentration, no detectable biomass)” value [1] was 2.5 ± 1.3 µM.

With RRVWRWVRRWWR [H-RWV12] the “Mean MIC, A. baumannii” value (A. baumannii) was 6 ± 2.3 µM, the “Mean MIC, E. coli” value (E. coli) was 6.4 ± 2.2 µM and the “Mean MIC, E. faecium” value (E. faecium) was 28 ± 10 µM. The “Mean MIC, Enterobacter spp.” value (Enterobacter spp.) was 28 ± 7.4 µM, the “Mean MIC, K. pneumoniae” value (K. pneumoniae) was 18 ± 12 µM and the “Mean MIC, P. aeruginosa” value (P. aeruginosa) was 24 ± 8 µM. For the same sequence, the “Mean MIC, S. aureus” value (S. aureus) was 18 ± 12 µM and the “MBEC (minimum biofilm elimination concentration, no detectable biomass)” value [1] was 2 µM.

With RRVWRWVRRVWRWVRR [H-RWV16] the “Lytic effect on human RBCs relative to L-RWV12” value (human red blood cells) was 3 fold.

For RRVWRWVRRWWRRV [H-RWV14], the RBC lysis was 3%, the “Mean MIC, A. baumannii” value (A. baumannii) was 8 ± 5.6 µM and the “Mean MIC, E. faecium” value (E. faecium) was 17 ± 12 µM. The “Mean MIC, Enterobacter spp.” value (Enterobacter spp.) was 7.2 ± 5.6 µM, the “Mean MIC, K. pneumoniae” value (K. pneumoniae) was 7.5 ± 12 µM and the “Mean MIC, P. aeruginosa” value (P. aeruginosa) was 12 ± 4 µM. The “Mean MIC, S. aureus” value (S. aureus) was 7.5 ± 12 µM and the “MBEC (minimum biofilm elimination concentration, no detectable biomass)” value [1] was 1.7 ± 0.5 µM.

For RRRRRRRWWWWVVV [L-RWV14], the “Mean MIC, A. baumannii” value (A. baumannii) was 7.4 ± 6.2 µM, the “Mean MIC, E. coli” value (E. coli) was 4.4 ± 2.7 µM and the “Mean MIC, E. faecium” value (E. faecium) was 19 ± 11 µM. The “Mean MIC, Enterobacter spp.” value (Enterobacter spp.) was 16.9 ± 14 µM, the “Mean MIC, K. pneumoniae” value (K. pneumoniae) was 3 ± 1 µM and the “Mean MIC, P. aeruginosa” value (P. aeruginosa) was 21 ± 9 µM. The “Mean MIC, S. aureus” value (S. aureus) was 3 ± 1 µM and the “MBEC (minimum biofilm elimination concentration, no detectable biomass)” value [1] was 2.6 ± 1.2 µM.

For RRRRWWWW [L-RWV8], the “Mean MIC, A. baumannii” value (A. baumannii) was 10.2 ± 0.9 µM, the “Mean MIC, E. coli” value (E. coli) was 16 µM and the “Mean MIC, E. faecium” value (E. faecium) was 30 ± 5 µM. For the same sequence, the “Mean MIC, Enterobacter spp.” value (Enterobacter spp.) was 30.2 ± 5.3 µM, the “Mean MIC, K. pneumoniae” value (K. pneumoniae) was 20 ± 7.4 µM and the “Mean MIC, P. aeruginosa” value (P. aeruginosa) was 30 ± 5.2 µM. The “Mean MIC, S. aureus” value (S. aureus) was 20. ± 0.7 µM.

For RRRRRRRRWWWWVVVV [L-RWV16], the “Mean MIC, A. baumannii” value (A. baumannii) was 21 ± 11 µM, the “Mean MIC, E. coli” value (E. coli) was 24 ± 10 µM and the “Mean MIC, E. faecium” value (E. faecium) was 32 µM. For the same sequence, the “Mean MIC, Enterobacter spp.” value (Enterobacter spp.) was 32 µM, the “Mean MIC, K. pneumoniae” value (K. pneumoniae) was 32 µM and the “Mean MIC, P. aeruginosa” value (P. aeruginosa) was 32 µM. For the same sequence, the “Mean MIC, S. aureus” value (S. aureus) was 32 µM.
